Legend:
GFPmut3 expression [1] = assay: Demonstration of bistability of toggle and control plasmids; format: cell-based, E. coli strain JM2.300; details: for GFP EXPRESSION (bistable or monostable behaviour): Toggles, Type IV plasmids; for bistability: Type IV toggle plasmids with RBS1 sequences of varying efficiency
Excerpt: In order to test the limits of bistability of the toggle switch, the al parameter was varied experimentally by inserting RBS1 sequences of varying efficiency into pTAK (Class 1) and pIKE (Class 2) toggle switches of Type IV. Four pTAK series plasmids (Class 1) were constructed with RBS1 sequences D,F,G and H, and two pIKE series plasmids (Class 2) were constructed with RBS1 sequences A and C (Table 6).
The existence of bistability is illustrated in FIG. 12. In this experiment, the toggle and control plasmids were grown in E. coli strain JM2.300 for 23.5 hours. At 6, 11, 18 and 23.5 hours, samples were taken and cells were pelleted, washed once in LB or PBS, and diluted 500-1000 fold into fresh medium with or without inducers as appropriate. […] Cells were washed and diluted into fresh medium with no IPTG and grown an additional 5 hours. […] Cells were diluted into fresh medium and induced at 42° C. (pTAK plasmids only—FIG. 12A) or grown in the presence of 500 ng/ml aTc (pIKE plasmids only—FIG. 12B). […] Cells were washed and diluted into fresh medium with no inducers or returned to standard temperature.
In this experiment, a single culture of pTAK117 cells (initially in the low state) was divided into two groups and diluted. The first group was grown in medium with no inducers (squares) while the second group was grown in medium plus 2 mM IPTG (circles). After 6 hours, cells were pelleted, washed once in LB and diluted 1000 fold into fresh medium with no inducer. Both groups of cells were grown for an additional 22 hours while taking samples and diluting into fresh medium every 6-8.5 hours.

GFPmut3 expression [2] = assay: Toggle switch induction threshold (steady-state gene expression after 17 hour IPTG induction); format: cell-based, E. coli strain JM2.300; details: 17 hours in 13 different concentrations of IPTG
Procedure: This was tested experimentally. In this experiment, pTAK117 (initially in the low state) and pTAK102 (as a control) were grown in 13 different concentrations of IPTG for 17 hours, diluting twice (at 6 and 12.5 hours) into fresh medium with the same IPTG concentration. The cells were grown for this length of time in order to ensure that they reached steady-state expression levels. […] Point 1 was taken from separate experiments measuring the high state of pTAK117 with no inducer. Points 3a and 3b are the high and low modes of a bimodally distributed cell population. The bimodality occurred apparently due to natural fluctuations in gene expression and the close proximity of the toggle switch to its bifurcation point. Induction of the pTAK102 control has the familiar sigmoidal shape (triangles). […] This discontinuity is referred to as a saddle-node bifurcation.

GFPmut3 expression [3] = assay: Switching time of toggle switch; format: cell-based, E. coli strain JM2.300
Procedure: In this experiment, pTAK117 cells initially in the low state were diluted in fresh medium and induced with 2 mM IPTG. Separate cultures were grown for 35 minutes to 6 hours before pelleting, washing, and diluting the cells 500 fold in fresh medium with no inducer. Growth was continued until 10.25 hours after the start of the experiment and cells were assayed in the flow cytometer. Conversely, pTAK117 cells initially in the high state were diluted in fresh medium with no inducer. Separate cultures were grown at 41±1° C. for 35 minutes to 6 hours before diluting the cells 500 fold in fresh medium with no inducer. Growth was continued at standard temperature until 10.25 hours after the start of the experiment and cells were assayed in the flow cytometer.
The cell population at four time points is illustrated. As evidenced by the appearance of a bimodal distribution at 4 hours (FIG. 15C), the pTAK117 plasmid began switching to the high state between 3 and 4 hours of IPTG induction. By five hours, the switching was nearly complete. By six hours, the switching was complete (FIGS. 15A and 15C). On the other hand, switching from the high state to the low state was completed in 35 minutes or less (FIG. 15B). In this experiment, the primary determinant of switching time appears to be the rate of destruction of the expressed transcribed repressor protein. […]

GFP expression = assay: Flow-cytometer assay of gene expression and promoter strength (GFP expression by plasmids); format: cell-based, E. coli strain JM2.300; details: repressor expressed from Ptrc-2-E; 14,300/2.5
Procedure: The host cell for all promoter assays and toggle switch experiments was E. coli strain JM2.300 [λ-, lacI22, rpsLl35 (StrR), thi-1] (CGSC strain 5002). JM2.300, which contains few mutations and is a fast growing strain that can tolerate enormous overexpression of plasmid-bound genes. Because JM2.300 contains no λ repressor and carries a non-functional Lac repressor (lacI22), it is considered to be a suitable host for the toggle switch.
All cells were grown in LB medium (Difco) with 100 μg/ml ampicillin plus inducers as indicated in the text. All Type I and pIKE series plasmids were grown at 37±1° C., unless otherwise indicated. All pTAK series plasmids were grown at 32±1° C. except during thermal induction. […]
The following expression data was collected using a Becton-Dickinson FACSCalibur flow cytometer with a 488 nm argon excitation laser and a 515-545 nm emission filter. […] Cells were assayed at low flow rate and fluorescence was calibrated using InSpeck Green fluorescent beads (Molecular Probes). […] All flow data were converted to ASCII format using MFI (E. Martz, University of Massachusetts, Amherst, available at http://marlin.bio.umass.edu/mcbfacs/flowcat.html\##mfi) and analyzed with Matlab (Mathworks).
The strengths, in calibrated fluorescence units, of the promoter/RBS pairs used to construct the toggle switches are listed in Table 6. […]

OL1-OL3 = details: λ to OL1-OL3; cited from earlier work
[4] = tested on: hybrid promoter: E. coli LexA operator sequence spliced into the HSV tk promoter; details: mammalian cells that synthesized the repressor; cited from earlier work

## pIKE105: Class 2 Type IV toggle plasmid (SEQ ID NO: 16), PLtetO-1, RBS1 A, lacI and tetR
GFPmut3 expression [1]
  GFP EXPRESSION (bistable or monostable behaviour): Monostable
  bistability: did not exhibit bistability
GFPmut3 expression [1]; washed, diluted into fresh medium with no IPTG, additional 5 hours
  state after removal of IPTG: returned to the low state

## pTAK117: Class 1 Type IV toggle switch plasmid (SEQ ID NO: 12), PLslcon, RBS1 D, lacI and cIts
GFPmut3 expression [1]; 6 hours with or without 2 mM IPTG, then 22 hours with no inducer
  long-term stability of the two states: remained in their initial high or low states for the entire 22 hour period
GFPmut3 expression [1]
  GFP EXPRESSION (bistable or monostable behaviour): Bistable
GFPmut3 expression [2]
  shape of IPTG induction curve: quasi-discontinuous jump to the high state
GFPmut3 expression [2]; initially in the low state
  IPTG concentration at which toggle exhibits quasi-discontinuous jump to the high expression state: 40 µM
GFPmut3 expression [3]; 2 mM IPTG induction
  switching from low to high state complete: six
GFPmut3 expression [3]; thermal induction at 41±1° C.
  switching from the high state to the low state completed: ≤ 35 min

## pIKE107: Class 2 Type IV toggle switch plasmid (SEQ ID NO: 17), PLtetO-1, RBS1 C
GFPmut3 expression [1]
  GFP EXPRESSION (bistable or monostable behaviour): Bistable
  bistability: exhibited bistability

## pTAK131: Class 1 Type IV toggle switch plasmid (SEQ ID NO: 13), PLslcon, RBS1 F
GFPmut3 expression [1]
  GFP EXPRESSION (bistable or monostable behaviour): Bistable

## pTAK130: Class 1 Type IV toggle switch plasmid (SEQ ID NO: 15), PLslcon, RBS1 G
GFPmut3 expression [1]
  GFP EXPRESSION (bistable or monostable behaviour): Bistable

## pTAK132: Class 1 Type IV toggle switch plasmid (SEQ ID NO: 14), PLslcon, RBS1 H
GFPmut3 expression [1]
  GFP EXPRESSION (bistable or monostable behaviour): Bistable

## λ repressor (cI): bacteriophage λ repressor protein that represses the PL promoter
GFP expression
  repression of the PLSlcon-D promoter: ~6000 fold
OL1-OL3
  Kd: ~1 nM

B1: E. coli LexA repressor protein: E. coli repressor protein that represses transcription at operator site Olex (protein, UniProt P0A7C2 1-202, looked up)
LexA repressor: MKALTARQQEVFDLIRDHISQTGMPPTRAEIAQRLGFRSPNAAEEHLKALARKGVIEIVSGASRGIRLLQEEEEGLPLVGRVAAGEPLLAQQHIEGHYQVDPSLFKPNADFLLRVSGMSMKDIGIMDGDLLAVHKTQDVRNGQVVVARIDDEVTVKRLKKQGNKVELLPENSEFKPIVVDLRQQSFTIEGLAVGVIRNGDWL
[4]
  reduction of expression from hybrid LexA operator / HSV tk promoter: 10 fold

From patent publication US6841376B2, “Bistable genetic toggle switch” (Cellicon Technologies, Inc., priority 1998, dated 2005)
